SMILES strings stand for the structures.

One assay has as its system PC-3 [JPC-3]. The assay is described as follows: relative viability (nuclei count vs DMSO), 5 days (fraction); higher = more cells survive. The settings on record: first compound 0.6325 µM. An outline of the steps:
(§1)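 Dosing by pin tool came one day after lung cancer cell lines were seeded in 1536-well plates, using either one drug or a fixed anchor-drug dose plus five library-drug doses (not always all listed) in √10 steps. After 5 days, nuclei were counted on 4× images. Relative viability is treated-well nuclei count divided by vehicle-well nuclei count, and values are medians of duplicate plates.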
In turn, `COCC1(CO)C(=O)C2CCN1CC2` (stereo not drawn) [PRIMA-1MET] + Nc1nc2[nH]cc(CCc3ccc(C(=O)N[C@@H](CCC(=O)O)C(=O)O)cc3)c2c(=O)[nH]1 [Pemetrexed] (partner 0.2 µM) displayed a relative viability of 0.975.
Same read-out and setting: in the case of `COCC1(CO)C(=O)C2CCN1CC2` (stereo not drawn) [PRIMA-1MET] + Cc1nc(Nc2ncc(C(=O)Nc3c(C)cccc3Cl)s2)cc(N2CCN(CCO)CC2)n1 [Dasatinib] (partner 0.075 µM) it was 0.977.

The same assay, now with this note: first compound 2 µM.
For the compound `COCC1(CO)C(=O)C2CCN1CC2` (stereo not drawn) [PRIMA-1MET] + CCNC(=O)c1noc(-c2cc(C(C)C)c(O)cc2O)c1-c1ccc(CN2CCOCC2)cc1 [Luminespib] (partner 0.01 µM), the relative viability was 0.679.
Still for that read-out and setting: then `COCC1(CO)C(=O)C2CCN1CC2` (stereo not drawn) [PRIMA-1MET] + COc1cccc2cc(-c3nc([C@H]4CC[C@H](C(=O)O)CC4)n4ncnc(N)c34)[nH]c12 [OSI-027] (partner 0.5 µM), with 0.816.
On the same count and under the same terms, then `COCC1(CO)C(=O)C2CCN1CC2` (stereo not drawn) [PRIMA-1MET] + N=C(N)NC(=N)NCCc1ccccc1 [Phenformin] (partner 250 µM), with 0.462; and `COCC1(CO)C(=O)C2CCN1CC2` (stereo not drawn) [PRIMA-1MET] + Nc1nc2[nH]cc(CCc3ccc(C(=O)N[C@@H](CCC(=O)O)C(=O)O)cc3)c2c(=O)[nH]1 [Pemetrexed] (partner 0.2 µM), with 1.04; and `COCC1(CO)C(=O)C2CCN1CC2` (stereo not drawn) [PRIMA-1MET] + Cc1nc(Nc2ncc(C(=O)Nc3c(C)cccc3Cl)s2)cc(N2CCN(CCO)CC2)n1 [Dasatinib] (partner 0.075 µM), with 0.96.

Staying with this assay, now noted: first compound 6.325 µM.
`COCC1(CO)C(=O)C2CCN1CC2` (stereo not drawn) [PRIMA-1MET] + CCNC(=O)c1noc(-c2cc(C(C)C)c(O)cc2O)c1-c1ccc(CN2CCOCC2)cc1 [Luminespib] (partner 0.01 µM) gave a relative viability of 0.731.
The same measure, in the same setting: in the case of `COCC1(CO)C(=O)C2CCN1CC2` (stereo not drawn) [PRIMA-1MET] + COc1cccc2cc(-c3nc([C@H]4CC[C@H](C(=O)O)CC4)n4ncnc(N)c34)[nH]c12 [OSI-027] (partner 0.5 µM) it was 0.77; in that of `COCC1(CO)C(=O)C2CCN1CC2` (stereo not drawn) [PRIMA-1MET] + N=C(N)NC(=N)NCCc1ccccc1 [Phenformin] (partner 250 µM), 0.477.
On the same count and under the same terms, then `COCC1(CO)C(=O)C2CCN1CC2` (stereo not drawn) [PRIMA-1MET] + Nc1nc2[nH]cc(CCc3ccc(C(=O)N[C@@H](CCC(=O)O)C(=O)O)cc3)c2c(=O)[nH]1 [Pemetrexed] (partner 0.2 µM), with 1.14; and `COCC1(CO)C(=O)C2CCN1CC2` (stereo not drawn) [PRIMA-1MET] + Cc1nc(Nc2ncc(C(=O)Nc3c(C)cccc3Cl)s2)cc(N2CCN(CCO)CC2)n1 [Dasatinib] (partner 0.075 µM), with 0.933.

Still in this assay, the particulars now being: first compound 20 µM.
For `COCC1(CO)C(=O)C2CCN1CC2` (stereo not drawn) [PRIMA-1MET] + CCNC(=O)c1noc(-c2cc(C(C)C)c(O)cc2O)c1-c1ccc(CN2CCOCC2)cc1 [Luminespib] (partner 0.01 µM), the relative viability came to 0.546.
On the same count and under the same terms, in the case of `COCC1(CO)C(=O)C2CCN1CC2` (stereo not drawn) [PRIMA-1MET] + COc1cccc2cc(-c3nc([C@H]4CC[C@H](C(=O)O)CC4)n4ncnc(N)c34)[nH]c12 [OSI-027] (partner 0.5 µM) it was 0.792; in that of `COCC1(CO)C(=O)C2CCN1CC2` (stereo not drawn) [PRIMA-1MET] + N=C(N)NC(=N)NCCc1ccccc1 [Phenformin] (partner 250 µM), 0.466.
Compound `COCC1(CO)C(=O)C2CCN1CC2` (stereo not drawn) [PRIMA-1MET] + Nc1nc2[nH]cc(CCc3ccc(C(=O)N[C@@H](CCC(=O)O)C(=O)O)cc3)c2c(=O)[nH]1 [Pemetrexed] (partner 0.2 µM) displayed a relative viability of 1.04.
Still for that read-out and setting: in the case of `COCC1(CO)C(=O)C2CCN1CC2` (stereo not drawn) [PRIMA-1MET] + Cc1nc(Nc2ncc(C(=O)Nc3c(C)cccc3Cl)s2)cc(N2CCN(CCO)CC2)n1 [Dasatinib] (partner 0.075 µM) it was 0.971.

A further assay has as its system SK-LU-1. Described as above. The note with it: first compound 0.2 µM. An outline of the steps: as §1
In turn, `COCC1(CO)C(=O)C2CCN1CC2` (stereo not drawn) [PRIMA-1MET] + CCNC(=O)c1noc(-c2cc(C(C)C)c(O)cc2O)c1-c1ccc(CN2CCOCC2)cc1 [Luminespib] (partner 0.01 µM) returned a relative viability of 0.203.
Still for that read-out and setting: then `COCC1(CO)C(=O)C2CCN1CC2` (stereo not drawn) [PRIMA-1MET] + COc1cccc2cc(-c3nc([C@H]4CC[C@H](C(=O)O)CC4)n4ncnc(N)c34)[nH]c12 [OSI-027] (partner 0.5 µM), with 0.321; and `COCC1(CO)C(=O)C2CCN1CC2` (stereo not drawn) [PRIMA-1MET] + N=C(N)NC(=N)NCCc1ccccc1 [Phenformin] (partner 250 µM), with 0.545; and `COCC1(CO)C(=O)C2CCN1CC2` (stereo not drawn) [PRIMA-1MET] + Nc1nc2[nH]cc(CCc3ccc(C(=O)N[C@@H](CCC(=O)O)C(=O)O)cc3)c2c(=O)[nH]1 [Pemetrexed] (partner 0.2 µM), with 1.01.
Still for that read-out and setting: in the case of `COCC1(CO)C(=O)C2CCN1CC2` (stereo not drawn) [PRIMA-1MET] + Cc1nc(Nc2ncc(C(=O)Nc3c(C)cccc3Cl)s2)cc(N2CCN(CCO)CC2)n1 [Dasatinib] (partner 0.075 µM) it was 0.192.

The same assay, now with this note: first compound 0.6325 µM.
`COCC1(CO)C(=O)C2CCN1CC2` (stereo not drawn) [PRIMA-1MET] + CCNC(=O)c1noc(-c2cc(C(C)C)c(O)cc2O)c1-c1ccc(CN2CCOCC2)cc1 [Luminespib] (partner 0.01 µM) returned a relative viability of 0.199.
Turning to `COCC1(CO)C(=O)C2CCN1CC2` (stereo not drawn) [PRIMA-1MET] + COc1cccc2cc(-c3nc([C@H]4CC[C@H](C(=O)O)CC4)n4ncnc(N)c34)[nH]c12 [OSI-027] (partner 0.5 µM), the relative viability was 0.375.
The same measure, in the same setting: then `COCC1(CO)C(=O)C2CCN1CC2` (stereo not drawn) [PRIMA-1MET] + N=C(N)NC(=N)NCCc1ccccc1 [Phenformin] (partner 250 µM), with 0.559; and `COCC1(CO)C(=O)C2CCN1CC2` (stereo not drawn) [PRIMA-1MET] + Nc1nc2[nH]cc(CCc3ccc(C(=O)N[C@@H](CCC(=O)O)C(=O)O)cc3)c2c(=O)[nH]1 [Pemetrexed] (partner 0.2 µM), with 1.12; and `COCC1(CO)C(=O)C2CCN1CC2` (stereo not drawn) [PRIMA-1MET] + Cc1nc(Nc2ncc(C(=O)Nc3c(C)cccc3Cl)s2)cc(N2CCN(CCO)CC2)n1 [Dasatinib] (partner 0.075 µM), with 0.177.

The assay is the same for the next values; noted with them: first compound 2 µM.
`COCC1(CO)C(=O)C2CCN1CC2` (stereo not drawn) [PRIMA-1MET] + CCNC(=O)c1noc(-c2cc(C(C)C)c(O)cc2O)c1-c1ccc(CN2CCOCC2)cc1 [Luminespib] (partner 0.01 µM): the relative viability amounted to 0.199.
The same measure, in the same setting: in the case of `COCC1(CO)C(=O)C2CCN1CC2` (stereo not drawn) [PRIMA-1MET] + COc1cccc2cc(-c3nc([C@H]4CC[C@H](C(=O)O)CC4)n4ncnc(N)c34)[nH]c12 [OSI-027] (partner 0.5 µM) it was 0.256; in that of `COCC1(CO)C(=O)C2CCN1CC2` (stereo not drawn) [PRIMA-1MET] + N=C(N)NC(=N)NCCc1ccccc1 [Phenformin] (partner 250 µM), 0.326.
On the same count and under the same terms, then `COCC1(CO)C(=O)C2CCN1CC2` (stereo not drawn) [PRIMA-1MET] + Nc1nc2[nH]cc(CCc3ccc(C(=O)N[C@@H](CCC(=O)O)C(=O)O)cc3)c2c(=O)[nH]1 [Pemetrexed] (partner 0.2 µM), with 1.01; and `COCC1(CO)C(=O)C2CCN1CC2` (stereo not drawn) [PRIMA-1MET] + Cc1nc(Nc2ncc(C(=O)Nc3c(C)cccc3Cl)s2)cc(N2CCN(CCO)CC2)n1 [Dasatinib] (partner 0.075 µM), with 0.186.

Staying with this assay, now noted: first compound 6.325 µM.
With `COCC1(CO)C(=O)C2CCN1CC2` (stereo not drawn) [PRIMA-1MET] + CCNC(=O)c1noc(-c2cc(C(C)C)c(O)cc2O)c1-c1ccc(CN2CCOCC2)cc1 [Luminespib] (partner 0.01 µM), the relative viability was 0.212.

The record behind these values is the supplement of paper PMC10307832.
